Test results from patent EP4603105A1, “PHARMACEUTICAL COMPOSITION CONTAINING CYCLIC COMPOUND HAVING SELECTIVE KRAS INHIBITORY EFFECT AGAINST HRAS AND NRAS” (CHUGAI SEIYAKU KABUSHIKI KAISHA, priority 2022, dated 2024).
pIC50: −log10 of the molar value.

Key:
[1] = target: GDP-bound NRAS wild-type protein (Homo sapiens, UniProt P01111); assay: Binding to NRAS by surface plasmon resonance (SPR), KD and KD ratio to KRAS; conditions: ratio of the KD value with respect to GDP-bound NRAS wild-type protein to the KD value with respect to KRAS
Procedure, shortened: (§1)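 Measured at 30°C: SPR with GDP-loaded, E. coli-expressed biotin-Avi RAS captured (~100–300 RU), ascending 75 s compound injections, HBS pH 7.4 with GDP, MgCl2, 4% DMSO. KD from 1:1 fit.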

[2] = target: HRAS wild-type protein (Homo sapiens, UniProt P01112); assay: Binding to HRAS by surface plasmon resonance (SPR), KD and KD ratio to KRAS; conditions: ratio of the KD value with respect to HRAS wild-type protein to the KD value with respect to KRAS
Procedure, shortened: as §1

[3] = test system: human lung cancer strain NCI-H441; assay type: cell-based
Procedure, shortened: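 Signal came from […] measured per well once the reagent was added. Beforehand, cells were cultured at 37°C and 5% carbon dioxide on a compound series serially diluted in dimethyl sulfoxide.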

Sequence of HRAS wild-type protein (P01112 whole entry): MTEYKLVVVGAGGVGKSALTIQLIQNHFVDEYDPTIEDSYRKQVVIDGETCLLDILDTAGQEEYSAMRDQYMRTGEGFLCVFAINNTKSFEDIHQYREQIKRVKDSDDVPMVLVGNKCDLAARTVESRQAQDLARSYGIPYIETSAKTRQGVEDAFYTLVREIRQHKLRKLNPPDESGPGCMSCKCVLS
Sequence of GDP-bound NRAS wild-type protein (P01111 whole entry): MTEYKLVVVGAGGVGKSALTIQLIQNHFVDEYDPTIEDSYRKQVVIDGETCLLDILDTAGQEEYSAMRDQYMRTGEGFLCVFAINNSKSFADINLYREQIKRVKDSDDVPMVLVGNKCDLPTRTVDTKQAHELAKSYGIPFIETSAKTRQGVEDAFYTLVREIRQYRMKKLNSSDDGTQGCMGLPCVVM

SMILES	NRAS /KRAS [1]	HRAS /KRAS [2]	pIC50 [3]
CC[C@H](C)[C@@H]1NC(=O)[C@H](CC(C)C)N(C)C(=O)C[C@@H](C(=O)N2CCOCC2)N(C)C(=O)[C@H](C2CCCC2)N(C)C(=O)C2(CCCC2)NC(=O)[C@@H]2CCCN2C(=O)[C@H](CCc2ccc(C(F)(F)F)c(Cl)c2)NC(=O)CN(C)C(=O)[C@H](Cc2ccc(OC)cc2)N2CC=CC[C@@H](C2=O)N(C)C(=O)CN(C)C1=O [PP0535]	C (A compound having a KD ratio of 0.1 or more and less than 3 is denoted as C)	B (a compound having 3 or more and less than 10 is denoted as B)	7.26
CC[C@H](C)[C@@H]1NC(=O)[C@H](CC(C)C)N(C)C(=O)C[C@@H](C(=O)N2CCOCC2)N(C)C(=O)[C@H](C2CCCC2)N(C)C(=O)C2(CCCC2)NC(=O)[C@@H]2CCCN2C(=O)[C@H](CCc2ccc(C(F)(F)F)c(Cl)c2)NC(=O)CN(C)C(=O)[C@H](Cc2ccc(OC(F)(F)F)cc2)N2CCCC[C@@H](C2=O)N(C)C(=O)CN(C)C1=O [PP0536]	B (a compound having 3 or more and less than 10 is denoted as B)	B (a compound having 3 or more and less than 10 is denoted as B)	7.66
CC[C@H](C)[C@@H]1NC(=O)[C@H](CC(C)C)N(C)C(=O)C[C@@H](C(=O)N2CCOCC2)N(C)C(=O)[C@H](C2CCCC2)N(C)C(=O)C2(CCCC2)NC(=O)[C@@H]2CCCN2C(=O)[C@H](CCc2ccc(C(F)(F)F)c(Cl)c2)NC(=O)CN(C)C(=O)[C@H](Cc2ccc(OC(F)(F)F)cc2)N2CC=CC[C@@H](C2=O)N(C)C(=O)CN(C)C1=O [PP0537]	C (A compound having a KD ratio of 0.1 or more and less than 3 is denoted as C)	C (A compound having a KD ratio of 0.1 or more and less than 3 is denoted as C)	6.71
CC[C@H](C)[C@@H]1NC(=O)[C@H](CC(C)C)N(C)C(=O)C[C@@H](C(=O)N2CCOCC2)N(C)C(=O)[C@H](C2CCCC2)N(CC)C(=O)C2(CCCC2)NC(=O)[C@@H]2CCCN2C(=O)[C@H](CCc2cc(F)c(C(F)(F)F)c(F)c2)NC(=O)CN(C)C(=O)[C@H](Cc2ccc(C(F)(F)F)cc2)N2CCCC[C@@H](C2=O)N(C)C(=O)CN(C)C1=O [PP0538]	B (a compound having 3 or more and less than 10 is denoted as B)	B (a compound having 3 or more and less than 10 is denoted as B)	7.11
CC[C@H](C)[C@@H]1NC(=O)[C@H](CC(C)C)N(C)C(=O)C[C@@H](C(=O)N2CCOCC2)N(CC)C(=O)[C@H](C2CCCC2)N(C)C(=O)C2(CCCC2)NC(=O)[C@@H]2CCCN2C(=O)[C@H](CCc2cc(F)c(C(F)(F)F)c(F)c2)NC(=O)CN(C)C(=O)[C@H](Cc2ccc(C(F)(F)F)cc2)N2CCCC[C@@H](C2=O)N(C)C(=O)CN(C)C1=O [PP0539]	B (a compound having 3 or more and less than 10 is denoted as B)	B (a compound having 3 or more and less than 10 is denoted as B)	8.20
CC[C@H](C)[C@@H]1NC(=O)[C@H](CC(C)C)N(C)C(=O)C[C@@H](C(=O)N2CCOCC2)N(C)C(=O)[C@H](C2CCCC2)NC(=O)C2(CCCC2)NC(=O)[C@@H]2CCCN2C(=O)[C@H](CCc2cc(F)c(C(F)(F)F)c(F)c2)NC(=O)CN(C)C(=O)[C@H](Cc2ccc(C(F)(F)F)cc2)N2CCCC[C@@H](C2=O)N(C)C(=O)CN(C)C1=O [PP0540]	B (a compound having 3 or more and less than 10 is denoted as B)	B (a compound having 3 or more and less than 10 is denoted as B)	6.12
CC[C@H](C)[C@@H]1NC(=O)[C@H](CC(C)C)N(C)C(=O)C[C@@H](C(=O)N2CCOCC2)N(C)C(=O)[C@H](C2CCCC2)N(C)C(=O)C2(CCCC2)NC(=O)[C@@H]2CCCN2C(=O)[C@H](CCc2cc(F)c(C(F)(F)F)c(F)c2)NC(=O)CN(C)C(=O)[C@H](Cc2ccc(C(F)(F)F)cc2)N2CCCC[C@@H](C2=O)N(C)C(=O)CNC1=O [PP0542]	B (a compound having 3 or more and less than 10 is denoted as B)	B (a compound having 3 or more and less than 10 is denoted as B)	8.47
CC[C@H](C)[C@@H]1NC(=O)[C@H](CC(C)C)N(C)C(=O)C[C@@H](C(=O)N2CCOCC2)N(C)C(=O)[C@H](C2CCCC2)N(C)C(=O)C2(CCCC2)NC(=O)[C@@H]2CCCN2C(=O)[C@H](CCc2cc(F)c(C(F)(F)F)c(F)c2)NC(=O)CN(C)C(=O)[C@H](Cc2ccc(C(F)(F)F)cc2)N2CCCC[C@@H](C2=O)N(C)C(=O)[C@H](C)NC1=O [PP0543]	B (a compound having 3 or more and less than 10 is denoted as B)	B (a compound having 3 or more and less than 10 is denoted as B)	7.38
CC[C@H](C)[C@@H]1NC(=O)[C@H](CC(C)C)N(C)C(=O)C[C@@H](C(=O)N2CCOCC2)N(C)C(=O)[C@H](C2CCCC2)N(C)C(=O)C2(CCCC2)NC(=O)[C@@H]2CCCN2C(=O)[C@H](CCc2cc(F)c(C(F)(F)F)c(F)c2)NC(=O)CN(C)C(=O)[C@H](Cc2ccc(C(F)(F)F)cc2)N2CCCC[C@@H](C2=O)N(C)C(=O)[C@H](C)N(C)C1=O [PP0544]	B (a compound having 3 or more and less than 10 is denoted as B)	B (a compound having 3 or more and less than 10 is denoted as B)	6.19
CC[C@H](C)[C@@H]1NC(=O)[C@H](CC(C)C)N(C)C(=O)C[C@@H](C(=O)N2CCOCC2)N(C)C(=O)[C@H](C2CCCC2)N(C)C(=O)C2(CCCC2)NC(=O)[C@@H]2CCCN2C(=O)[C@H](CCc2cc(F)c(C(F)(F)F)c(F)c2)NC(=O)CN(C)C(=O)[C@H](Cc2ccc(C(F)(F)F)cc2)N2CCCC[C@@H](C2=O)N(C)C(=O)CN(CC)C1=O [PP0545]	B (a compound having 3 or more and less than 10 is denoted as B)	B (a compound having 3 or more and less than 10 is denoted as B)	7.85
CC[C@H](C)[C@@H]1NC(=O)[C@H](CC(C)C)N(C)C(=O)C[C@@H](C(=O)N2CCOCC2)N(C)C(=O)[C@H](C2CCCC2)N(C)C(=O)C2(CCCC2)NC(=O)[C@@H]2CCCN2C(=O)[C@H](CCc2cc(F)c(C(F)(F)F)c(F)c2)NC(=O)CN(C)C(=O)[C@H](Cc2ccc(C(F)(F)F)cc2)N2CCCC[C@@H](C2=O)N(C)C(=O)[C@@H]2CCCN2C1=O [PP0547]	B (a compound having 3 or more and less than 10 is denoted as B)	B (a compound having 3 or more and less than 10 is denoted as B)	7.67
CC[C@H](C)[C@@H]1NC(=O)[C@H](CC(C)C)N(C)C(=O)C[C@@H](C(=O)N2CCOCC2)N(C)C(=O)[C@H](C2CCCC2)N(C)C(=O)C2(CCCC2)NC(=O)[C@@H]2CCCN2C(=O)[C@H](CCc2cc(F)c(C(F)(F)F)c(F)c2)NC(=O)CN(C)C(=O)[C@H](Cc2ccc(C(F)(F)F)cc2)N2CCCC[C@@H](C2=O)N(C)C(=O)[C@@H]2CCCCN2C1=O [PP0548]	C (A compound having a KD ratio of 0.1 or more and less than 3 is denoted as C)	B (a compound having 3 or more and less than 10 is denoted as B)	6.30
CC[C@H](C)[C@@H]1NC(=O)[C@H](C)N(C)C(=O)C[C@@H](C(=O)N2CCOCC2)N(C)C(=O)[C@H](C2CCCC2)N(C)C(=O)C2(CCCC2)NC(=O)[C@@H]2CCCN2C(=O)[C@H](CCc2cc(F)c(C(F)(F)F)c(F)c2)NC(=O)CN(C)C(=O)[C@H](Cc2ccc(C(F)(F)F)cc2)N2CCCC[C@@H](C2=O)N(C)C(=O)CN(C)C1=O [PP0549]	C (A compound having a KD ratio of 0.1 or more and less than 3 is denoted as C)	B (a compound having 3 or more and less than 10 is denoted as B)	7.89
CC[C@H](C)[C@@H]1NC(=O)[C@H](CC(C)C)N(C)C(=O)C[C@@H](C(=O)N2CCOCC2)N(C)C(=O)[C@H](C2CCCC2)N(C)C(=O)C2(CCCC2)NC(=O)[C@@H]2CCCN2C(=O)[C@H](CCc2cc(F)c(C(F)(F)F)c(F)c2)NC(=O)CN(C)C(=O)[C@H](Cc2ccc(C(F)(F)F)cc2)N2CCCC[C@@H](C2=O)N(C)C(=O)CN(C)C1=O [PP0552]	B (a compound having 3 or more and less than 10 is denoted as B)	B (a compound having 3 or more and less than 10 is denoted as B)	8.55
CCO[C@@H]1C[C@H]2C(=O)NC3(CCCC3)C(=O)N(C)[C@@H](C3CCCC3)C(=O)N(C)[C@H](C(=O)N3CCOCC3)CC(=O)N(C)[C@@H](CC(C)C)C(=O)N[C@@H]([C@@H](C)CC)C(=O)N(C)CC(=O)N(C)[C@H]3CCCCN(C3=O)[C@@H](Cc3ccc(C(F)(F)F)cc3)C(=O)N(C)CC(=O)N[C@@H](CCc3cc(F)c(C(F)(F)F)c(F)c3)C(=O)N2C1 [PP0554]	B (a compound having 3 or more and less than 10 is denoted as B)	B (a compound having 3 or more and less than 10 is denoted as B)	8.80
